Data set [1] can be described thus: calcium chelation value of crude ligand. Format: physicochemical. More on the design: unit not given here. The procedure: (§1) The diethanolamine derivatives and maleic anhydride can be synthesized by the reaction according to equation (I). The diethanolamine precursor, maleic anhydride, and selected catalyst were added into about 15-20 mL of dichloromethane solvent, wherein the amounts of each compounds were shown in table 1. Then, the obtained mixture was refluxed at the temperature of 50° C. until the reaction was completed. The amount of precursors being used was monitored. The solvent was removed from the obtained product. The obtained product was dissolved in 50 mL of distilled water and washed with dichloromethane for at least 3 times (30 mL each). After being washed, the obtained product was dried under vacuum and analyzed for its property using ^1H NMR spectroscopy and liquid chromatography mass spectrometry (LC/MS) technique.
as §1, with “succinic” for “maleic”, “(II).” for “(I).”, “3.” for “1.”, “in” for “in 50 mL of”, “water (50 mL)” for “water”
as §1, with “and succinic” for “and maleic”, “equation (III).” for “equation (I).”, “precursor, phthalic” for “precursor, maleic”, “table 5.” for “table 1.”, “in” for “in 50 mL of”, “water (50 mL)” for “water”

Data set [2] in a line: stability constant by complex titration. The settings on record: synthesized chelating agent. Format: physicochemical. The text has this:
The analysis of stability constant between the synthesized chelating agent and metal ions can be performed by complex titration wherein the stability constant of the synthesized chelating agent and metal ions comparing to the previous disclosed degradable chelating agent can be performed according to table 7.

The conditions of data set [3]: copper (Cu2+); previous disclosed chelating agent; cited from earlier work.
For data set [4] the following is noted: barium (Ba^2+); previous disclosed chelating agent; cited from earlier work.
The conditions of data set [5]: tin (Pb^2+); previous disclosed chelating agent; cited from earlier work.
For data set [6] the following is noted: iron (Fe^3+); previous disclosed chelating agent; cited from earlier work.
The conditions of data set [7]: zinc (Zn^2+); previous disclosed chelating agent; cited from earlier work.
For data set [8] the following is noted: cadmium (Cd^2+); previous disclosed chelating agent; cited from earlier work.
For data set [9] the following is noted: nickel (Ni^2+); previous disclosed chelating agent; cited from earlier work.
The conditions of data set [10]: magnesium (Mg^2+); previous disclosed chelating agent; cited from earlier work.
The conditions of data set [11]: cobolt (Co^2+); previous disclosed chelating agent; cited from earlier work.
The conditions of data set [12]: calcium (Ca^2+); previous disclosed chelating agent; cited from earlier work.
The conditions of data set [13]: manganese (Mn^2+); previous disclosed chelating agent; cited from earlier work.
For data set [14] the following is noted: iron (Fe^2+); previous disclosed chelating agent; cited from earlier work.
The mark [15] stands for this setting: crude of ligand 2-1 to ligand 2-9 without purification.
[16] abbreviates: crude of ligand 3-1 to ligand 3-7 without purification.
Setting [17] is: crude of ligand 1-1 to ligand 1-11 without purification.

Where two headings read alike, the source gives them in different places.

`O=C(O)CCC(=O)OCCN(CCOC(=O)CCC(=O)O)C(=O)CCC(=O)O` [ligand 2-2]: the calcium chelation value in data set [1] (setting [15]) is reported as 8.

For `O=C(O)c1ccccc1C(=O)OCCN(CCOC(=O)c1ccccc1C(=O)O)C(=O)c1ccccc1C(=O)O` [ligand 3-3], the calcium chelation value in data set [1] (setting [16]) came out at 81.

As to `O=C(O)CCC(=O)OCCN(CCOC(=O)CCC(=O)O)C(=O)CCC(=O)O` [ligand 2], the stability constant in data set [2] (aluminium (Al^3+)) is given as 11.4; in [2] (barium (Ba^2+)) it was 6.2; in data set [2] (cadmium (Cd^2+)), 7.2; in data set [2] (calcium (Ca^2+)) it was 10.1; in data set [2] (cobolt (Co^2+)), 7.5; in data set [2] (copper (Cu2+)) it was 10.5. Further, the stability constant in [2] (iron (Fe^2+)) came to 12.3; in data set [2] (iron (Fe^3+)), 7.5; in data set [2] (magnesium (Mg^2+)), 8.1; in data set [2] (manganese (Mn^2+)), 9.1; in data set [2] (mercury (Hg^2+)), 9.5; in [2] (nickel (Ni^2+)) it was 5.4. For the same compound, the stability constant came out at 5.3 in data set [2] (strontium (Sr^2+)), 9.9 in data set [2] (tin (Pb^2+)) and 7.9 in data set [2] (zinc (Zn^2+)).

Consider `O=C(O)CCC(=O)OCCN(CCOC(=O)CCC(=O)O)C(=O)CCC(=O)O` [ligand 2-3], for which the calcium chelation value in data set [1] (setting [15]) is reported as 55.

With `O=C(O)/C=C/C(=O)OCCN(CCOC(=O)/C=C/C(=O)O)C(=O)/C=C/C(=O)O` [ligand 1-11], the calcium chelation value in data set [1] (setting [17]) came out at 60.

Regarding `O=C(O)/C=C/C(=O)OCCN(CCOC(=O)/C=C/C(=O)O)C(=O)/C=C/C(=O)O` [ligand 1-10], in data set [1] (setting [17]), the calcium chelation value was 62.

For `O=C(O)CCC(=O)OCCN(CCOC(=O)CCC(=O)O)C(=O)CCC(=O)O` [ligand 2-4], the calcium chelation value in [1] (setting [15]) is 21.

In the case of `O=C(O)/C=C/C(=O)OCCN(CCOC(=O)/C=C/C(=O)O)C(=O)/C=C/C(=O)O` [ligand 1-4], the calcium chelation value in data set [1] (setting [17]) was 9.

`O=C(O)c1ccccc1C(=O)OCCN(CCOC(=O)c1ccccc1C(=O)O)C(=O)c1ccccc1C(=O)O` [ligand 3-7]: in data set [1] (setting [16]), the calcium chelation value was found to be 76.

Regarding `O=C(O)CCC(=O)OCCN(CCOC(=O)CCC(=O)O)C(=O)CCC(=O)O` [ligand 2-5], in [1] (setting [15]), the calcium chelation value amounted to 45.

In the case of `O=C(O)/C=C/C(=O)OCCN(CCOC(=O)/C=C/C(=O)O)C(=O)/C=C/C(=O)O` [ligand 1-1], the calcium chelation value in data set [1] (setting [17]) is recorded as 4.

For `O=C(O)/C=C/C(=O)OCCN(CCOC(=O)/C=C/C(=O)O)C(=O)/C=C/C(=O)O` [ligand 1-8], the calcium chelation value in [1] (setting [17]) is 58.

On to `O=C(O)/C=C/C(=O)OCCN(CCOC(=O)/C=C/C(=O)O)C(=O)/C=C/C(=O)O` [ligand 1-3], for which the calcium chelation value in data set [1] (setting [17]) was 13.

As for `O=C(O)/C=C/C(=O)OCCN(CCOC(=O)/C=C/C(=O)O)C(=O)/C=C/C(=O)O` [ligand 1-7], the calcium chelation value in [1] (setting [17]) is recorded as 46.

As to `O=C(O)c1ccccc1C(=O)OCCN(CCOC(=O)c1ccccc1C(=O)O)C(=O)c1ccccc1C(=O)O` [ligand 3-1], the calcium chelation value in data set [1] (setting [16]) was found to be 25.

Take `O=C(O)c1ccccc1C(=O)OCCN(CCOC(=O)c1ccccc1C(=O)O)C(=O)c1ccccc1C(=O)O` [ligand 3-4]: the calcium chelation value in data set [1] (setting [16]) was found to be 70.

As to `O=C(O)c1ccccc1C(=O)OCCN(CCOC(=O)c1ccccc1C(=O)O)C(=O)c1ccccc1C(=O)O` [ligand 3-2], in data set [1] (setting [16]), the calcium chelation value worked out at 15.

As for `O=C(O)/C=C/C(=O)OCCN(CCOC(=O)/C=C/C(=O)O)C(=O)/C=C/C(=O)O` [ligand 1-5], the calcium chelation value in data set [1] (setting [17]) is reported as 3.

For `O=C(O)C[C@H](NCCN[C@@H](CC(=O)O)C(=O)O)C(=O)O` [EDDS, ethylene diamine-N,N-disuccinic acid], the stability constant was 18.4 in [3]; 3.0 in [4]; 12.7 in data set [5]; 22.0 in [6]; 13.4 in data set [7]; 16.4 in [8]. For the same compound, the stability constant was 16.7 in data set [9], 6.0 in [10], 13.6 in [11] and 4.6 in data set [12].

With `O=C(O)c1ccccc1C(=O)OCCN(CCOC(=O)c1ccccc1C(=O)O)C(=O)c1ccccc1C(=O)O` [ligand 3-6], the calcium chelation value in [1] (setting [16]) was 88.

Regarding `O=C(O)/C=C/C(=O)OCCN(CCOC(=O)/C=C/C(=O)O)C(=O)/C=C/C(=O)O` [ligand 1-2], the calcium chelation value in data set [1] (setting [17]) is on record as 15.

In the case of `O=C(O)CCC(=O)OCCN(CCOC(=O)CCC(=O)O)C(=O)CCC(=O)O` [ligand 2-1], in [1] (setting [15]), the calcium chelation value is recorded as 5.

Consider `O=C(O)CCC(=O)OCCN(CCOC(=O)CCC(=O)O)C(=O)CCC(=O)O` [ligand 2-7], for which the calcium chelation value in [1] (setting [15]) is 42.

`O=C(O)c1ccccc1C(=O)OCCN(CCOC(=O)c1ccccc1C(=O)O)C(=O)c1ccccc1C(=O)O` [ligand 3-5]: the calcium chelation value in data set [1] (setting [16]) is 75.

Consider `O=C(O)/C=C/C(=O)OCCN(CCOC(=O)/C=C/C(=O)O)C(=O)/C=C/C(=O)O` [ligand 1], for which the stability constant in data set [2] (aluminium (Al^3+)) is listed as 10.7; in data set [2] (barium (Ba^2+)), 7.8; in data set [2] (cadmium (Cd^2+)) it was 8.5; in data set [2] (calcium (Ca^2+)), 9.3; in data set [2] (cobolt (Co^2+)), 10.4; in [2] (copper (Cu2+)) it was 12.8. Besides, the stability constant in [2] (iron (Fe^2+)) amounted to 14.8; in data set [2] (iron (Fe^3+)) it was 9.5; in [2] (magnesium (Mg^2+)) it was 8.3; in data set [2] (manganese (Mn^2+)), 10.4; in [2] (mercury (Hg^2+)), 7.8; in data set [2] (nickel (Ni^2+)) it was 5.0. Moreover, the stability constant in data set [2] (strontium (Sr^2+)) worked out at 7.7; in data set [2] (tin (Pb^2+)), 11.4; in data set [2] (zinc (Zn^2+)), 9.0.

As for `O=C(O)CCC(=O)OCCN(CCOC(=O)CCC(=O)O)C(=O)CCC(=O)O` [ligand 2-8], in [1] (setting [15]), the calcium chelation value was 83.

Consider `O=C(O)CCC(=O)OCCN(CCOC(=O)CCC(=O)O)C(=O)CCC(=O)O` [ligand 2-9], for which the calcium chelation value in data set [1] (setting [15]) is recorded as 85.

For `O=C(O)CCC(=O)OCCN(CCOC(=O)CCC(=O)O)C(=O)CCC(=O)O` [ligand 2-6], in data set [1] (setting [15]), the calcium chelation value worked out at 87.

Take `CC(C(=O)O)N(CC(=O)O)CC(=O)O` (stereo not drawn) [MGDA, methylglycinediacetic acid]: the stability constant is listed as 13.9 in data set [3]; 4.9 in [4]; 8.4 in data set [13]; 16.5 in [6]; 8.1 in data set [14]; 10.9 in data set [7]. Also, the results for the stability constant in [9], in data set [10] and in [12] were 12.0, 5.8 and 7.0, respectively.

In the case of `O=C(O)/C=C/C(=O)OCCN(CCOC(=O)/C=C/C(=O)O)C(=O)/C=C/C(=O)O` [ligand 1-9], the calcium chelation value in [1] (setting [17]) was 83.

(Values after patent publication US20200095192A1, “BIODEGRADABLE DIETHANOLAMINE DERIVATIVE CHELATING AGENT AND PREPARATION PROCESS THEREOF” (PTT Global Chemical Public Company Limited, priority 2017, published 2020).)
